# *1 amine or outer side, *2 acyl side, *3 side chain or, on linkers, in order; H or OH if unused. Where a SMILES comes first, the peptide text is derived from it. Bridges are numbered along the chain shown (N, C = ends). [ ]: non-standard residue; d: D form. X1 = O=C([C@@H]1CC(n2cc([C]34[CH]5[CH]6[CH]7[CH]3[Fe]6754389%10[CH]4[CH]3[CH]8[CH]9[CH]4%10)nn2)CN1[*:1])[*:2]
# How the values were obtained:
# HxBc2 gp120 WT monomer = HxBc2 gp120 WT monomer (Human immunodeficiency virus type 1 group M subtype B, UniProt P04578); test: Isothermal titration calorimetry, WT gp120; format: binding, HIV-1; conditions: 25 °C
# Experimental: (§1) Heats were obtained at 25 °C by injection of 8 μL of PT (100 μM) into a sample cell of a VP-ITC containing 1.4 mL recombinant HxBc2 gp120 (6–8 μM). Solid lines represent fits to a single site binding model.
# (§2) The resulting heat changes upon injection were integrated over a time range of 240 s, and the obtained values were fit to a standard single site-binding model using Origin® software.
# [1] = target: HxBc2 gp120 V255I/S143N monomer (Human immunodeficiency virus type 1 group M subtype B, UniProt P04578, S143N/V255I); test: Isothermal titration calorimetry, V255I/S143N gp120; format: binding, HIV-1; conditions: 25 °C
# Experimental: as §1, §2
# CEM-GFP cells = test: WST-1 cytotoxicity assay; format: cell-based; conditions: up to concentrations of 125 μM
# Experimental: The cytotoxicity was determined on CEM-GFP cells via a colorimetric assay to measure the relative proliferation rates of cells in culture. […] After 18 h of incubation, the media containing compounds were discarded and treated with 10% (v/v) WST-1 (a tetrazolium salt) in fresh media for one hour at 37 °C. The cell viability was determined by measuring the absorbance at 450 nm using a Tecan Infinite F50 plate reader.
# Figure S1. […] Data represent means and standard deviations of three independent experiments performed in triplicate.
# [2] = tested on: V255I/S143N NL4-3 Env on HEK293T cells; test: gp120 shedding analysis by flow cytometry, V255I/S143N Env; format: cell-based, HIV-1
# Experimental: (§3) The measurements (mean fluorescence intensity) were obtained by flow cytometry using an anti-Env IgG (mAb 35O22) that recognizes a quaternary epitope at the gp120/gp41 interface.
# (§4) The gp120 shedding assay was performed as described previously. Briefly, three million HEK293T cells per flask were transiently transfected with 4 μg of HIV-1 NL4-3 Env plasmid and transfection reagent FuGENE 6 (Promega). 5 mM EDTA in DPBS was used to detach cells at 24 h and cells were reseeded in 96-well plates with 50,000 cells per well. […] Cells were washed with fresh medium, detached with 5 mM EDTA, and then washed and resuspended in FC buffer (1% BSA and 1 mM EDTA in 10 mM PBS pH 7.4). 2% paraformaldehyde in DPBS was used to fix the cells for 15 min at room temperature. Cells were then washed and resuspended in the FC buffer three times. […] Cell counts and Env staining were assessed in counted cells on a Guava EasyCyte 5HT flow cytometry system (Millipore). Analyzed cells were subjected to forward/side scatter gating based on untreated control populations of identical transfection, and median fluorescence values were obtained using Guava InCyte 3.2 software. Data were analyzed in GraphPad Prism 9 using nonlinear regression fit with dose response-inhibitor equation (4 parameters).
# [3] = target: HIV-1 HxBc2 gp120 V255I/S143N monomer (Human immunodeficiency virus type 1 group M subtype B, UniProt P04578, S143N/V255I); test: Surface plasmon resonance, V255I/S143N gp120; format: binding
# Experimental: (§5) SPR experiments were performed on a Biacore 3000 biosensor (Global Cytiva Lifesciences) at 25 °C using PBS-P (10 mM Phosphate, 150 mM NaCl, pH 7.4, 0.005% P-20) as the running buffer. A CM5 sensor chip was docked and derivatized by amine coupling with HIV-1HxBc2 WT and mutant gp120 subunits using freshly prepared 1:1 50 mM NHS (N-hydroxysuccinamide):200 mM EDC (1-ethyl-3-(3-(dimethylamino)propyl) carbodiimide). […] The equilibrium dissociation constant was calculated as KD = k−1/k1.
# (§6) Rate constants k1 and k-1 are defined as they are in the 1:1 binding model, while k2 and k-2 are first order rate constants describing isomerization and de-isomerization, respectively. Equations describing the time course of the interactions can be found in Additional file 1: Method S1. For the fit, it was assumed that the states Env·PT and Env·PT^∗ had the same SPR signal. Rate constants were determined using a least-squares gradient-step algorithm coded in Visual Basic and implemented through Microsoft Excel.
# [4] = tested on: V255I NL4-3 Env on HEK293T cells; test: gp120 shedding analysis by flow cytometry, V255I Env; format: cell-based, HIV-1
# Experimental: as §3, §4
# [5] = tested on: S143N NL4-3 Env on HEK293T cells; test: gp120 shedding analysis by flow cytometry, S143N Env; format: cell-based, HIV-1; conditions: S143N mutant Env trimer; 50-fold higher than the EC50 value for wild type Env
# Experimental: as §3, §4
# [6] = target: HxBc2 gp120 V255I monomer (Human immunodeficiency virus type 1 group M subtype B, UniProt P04578, V255I); test: Isothermal titration calorimetry, V255I gp120; format: binding, HIV-1
# Experimental: as §1, §2
# [7] = tested on: wild type NL4-3 Env on HEK293T cells; test: gp120 shedding analysis by flow cytometry, wild type Env; format: cell-based, HIV-1; conditions: WT NL4-3 Env on HEK293T cells; 37 °C, 2 h; mAb 35O22 flow cytometry; read-out: EC50 of induced gp120 shedding (intact Env trimers remaining)
# Experimental: as §3, §4
# [8] = target: HIV-1 HxBc2 gp120 V255I monomer (Human immunodeficiency virus type 1 group M subtype B, UniProt P04578, V255I); test: Surface plasmon resonance, V255I gp120; format: binding
# Experimental: as §5, §6
# [9] = target: HIV-1 HxBc2 gp120 WT monomer (Human immunodeficiency virus type 1 group M subtype B, UniProt P04578); test: Surface plasmon resonance, WT gp120; format: binding
# Experimental: as §5, §6
# BaL.01 viruses = tested on: BaL.01 viruses; set-up: method as in PMID 24330857, PMID 26331669; conditions: ref [16], [21], read-out: EC50 of induced gp120 shedding; cited from earlier work
compound,measurement,setting,value
CC[C@H](C)[C@@H]1NC(=O)[C@H](CC(N)=O)NC(=O)[C@@H](N)CC(=O)NCCCC[C@@H](C(N)=O)NC(=O)[C@H](Cc2c[nH]c3ccccc23)NC(=O)[C@@H]2CC(n3cc([C]45[CH]6[CH]7[CH]8[CH]4[Fe]786549%10%11[CH]5[CH]4[CH]9[CH]%10[CH]5%11)nn3)CN2C1=O (some centres unmarked) [AAR029b] (H-DNI[X1]WK-NH2; lactam 1-6 (inferred)),ITC binding stoichiometry n,HxBc2 gp120 WT monomer,1.1 ± 0.04
same,ITC −TΔS,HxBc2 gp120 WT monomer,18.8 ± 3.77 kJ/mol
same,ITC binding stoichiometry n,[1],1.1 ± 0.04
same,ITC −TΔS,[1],4.18 ± 3.81 kJ/mol
same,cytotoxicity,CEM-GFP cells,minimal
same,decrease in sensitivity to ligand-induced shedding compared to wild type Env,[2],greater than tenfold
same,SPR k1,[3]; PT association,3.6 (M^−1 s^−1) × 10^–5
same,SPR k-1,[3]; PT dissociation,110 (s^−1) × 10^3
same,decrease in sensitivity to ligand-induced shedding compared to wild type Env,[4],greater than tenfold
same,disruption of Env trimer (shedding) at high concentration,[5],only minimal disruption
same,ITC binding stoichiometry n,"[6]; V255I gp120 (HxBc2), 25 °C",1.0 ± 0.01
same,ITC −TΔS,"[6]; V255I gp120 (HxBc2), 25 °C",1.8 ± 1.26 kJ/mol
same,absolute impact of V255I substitution on enthalpy (ΔH) and entropy (TΔS),"[6]; mutant vs wild type gp120, ITC",14.6 to 18.8 kJ/mol
same,EC50,[7],0.249 ± 0.075 µM
same,SPR k1,"[8]; V255I gp120, PT association",5.4 (M^−1 s^−1) × 10^–5
same,SPR k-1,"[8]; V255I gp120, PT dissociation",130 (s^−1) × 10^3
same,"decrease in binding affinity (KD) by the V255I mutation, SPR",[8]; V255I vs WT gp120,31 fold
same,SPR k1,[9]; PT association,11 (M^−1 s^−1) × 10^–5
same,SPR k-1,[9]; PT dissociation,8.3 (s^−1) × 10^3
same,EC50,BaL.01 viruses,0.315 µM

# Source: publication PMC8501640, “Altered Env conformational dynamics as a mechanism of resistance to peptide-triazole HIV-1 inactivators” (Retrovirology, 2021)
